The text below walks through data of patent publication EP4653001A1, “TREATMENT, DIAGNOSIS AND/OR PROGNOSIS OF MITOCHONDRIAL DISEASES” (Universidad Autónoma de Madrid, priority 2024, dated 2025).

Assay [1] relates to 143B cells. The experiment in a line: Lactate release in 143B cells (proxy of glycolysis). The class given is cell-based. Conditions: 24 h. On the procedure:
(§1) Increased lactate secretion is considered a good indicator of enhanced glycolytic rates, which is a common feature of ETC-inhibited cells as they switch from OXPHOS to glycolysis to maintain ATP levels. […] We culture 143B cells in the presence of Piericidin for 24 h and PPP activity and lactate release, as a proxy of glycolysis, were measured. As expected, lactate detection in the media was higher in CI-inhibited cells. […] Next, we wonder if in this context, glucose can be overused by glycolysis and therefore diverted away from the PPP. Diseases associated with impaired mitochondrial function negatively impact high energy demanding tissues such as the brain. As such, neurons that are highly sensitive to ETC inhibition also rely strongly on glucose metabolism. Thus, we used mouse cortical neurons to determine the rates of glycolysis and PPP as glucose levels become limiting. Control and Piericidin treated neurons where cultured in media containing supraphysiological (25 mM), physiological (5 mM) or subphysiological concentrations of glucose (2,5 mM). […] Decreased PPP activity under low glucose (2,5 mM) correlated with a rapid decline in NADPH/NADP+ levels in CI-inhibited cells. Conversely, glucose availability had no effect on ATP levels at this timepoint.

Assay [2] deals with 143B cells. Put plainly: Time-course cell proliferation / survival of 143B cells. The class given is cell-based. The following applies: 143B cells, over the course of 96 h; Piericidin 100 nM, G6PDi 50 uM; combination effect beyond 48 h. The method, then: All cell lines, 143b, HeLa, U2OS, and transmitochondrial cybrids carrying mutation in CI (ND2), CIII (CytB) or CIV (Cox2) subunits, were maintained in DMEM high glucose (HyClone), 10% FBS and 1% P/S at 37°C with 5% CO2. Mitochondrial mutant cells were cultured with supplementation of 50 µg/mL uridine. The selected cancer cell lines with different levels of malic enzyme (HCC15, KYSE410, CAKI1, J82, MDAMB453, Colo320, NCIH1703) were obtained from the DSMZ-German Collection of Microorganisms and Cell Cultures GmbH and cultured in the same DMEM 10% FBS medium. OCI-Lys3 and RCH-ACV cell lines (cells in suspension), were obtained from the same repository and cultured in RPMI 10% FBS medium. Transfections for gain- and loss-of-function studies were performed according to the manufacturer's instructions using the polyfect reagent (Qiagen, 301107). […] Subsequently, cells were trypsinized and quantified using a hemocytometer (NanoEnTek, DHC-N01). Cell viability was quantified using propidium iodide (PI; 50 µg/ml) staining.
Next, we conducted time-course experiments to gain further knowledge on the metabolic determinants underlying the observed synthetic lethality between PPP and OXPHOS. 143B cells were treated either with Piericidin or G6PDi (selective inhibitor of G6PD) alone or the combination of both and cell proliferation was quantified over the course of 96 h. […]

In a further assay the test system is mouse cortical neurons. The experiment in a line: L-lactate release in neurons (Lactate-Glo). In kind it is cell-based. On the procedure:
Primary cultures of C57BL/6 mouse cortical neurons were prepared from embryos between embryonic days 16.5 and 17.5 and seeded onto pre-treated plates coated with Poly-L-lysine hydrobromide (500 µg/ml). We used Neurobasal medium without D-glucose and sodium pyruvate (ThermoFisher) to modulate D-glucose levels, depending on the experiment (2.5 mM, 5 mM, or 25 mM).
L-lactate levels were measured in mouse cortical neurons using Lactate-Glo™ Assay (Promega, #J5021) following the original protocol.
as §1

A further assay has as its system mouse primary astrocytes. The experiment in a line: Morphology, proliferation and viability of primary astrocytes. The class given is cell-based. On the procedure: All cell lines, 143b, HeLa, U2OS, and transmitochondrial cybrids carrying mutation in CI (ND2), CIII (CytB) or CIV (Cox2) subunits, were maintained in DMEM high glucose (HyClone), 10% FBS and 1% P/S at 37°C with 5% CO2. Mitochondrial mutant cells were cultured with supplementation of 50 µg/mL uridine. The selected cancer cell lines with different levels of malic enzyme (HCC15, KYSE410, CAKI1, J82, MDAMB453, Colo320, NCIH1703) were obtained from the DSMZ-German Collection of Microorganisms and Cell Cultures GmbH and cultured in the same DMEM 10% FBS medium. OCI-Lys3 and RCH-ACV cell lines (cells in suspension), were obtained from the same repository and cultured in RPMI 10% FBS medium. Transfections for gain- and loss-of-function studies were performed according to the manufacturer's instructions using the polyfect reagent (Qiagen, 301107). For cell number and proliferation experiments, cells were seeded in 12 or 6-well plates and allowed to proliferate for the specified durations. Subsequently, cells were trypsinized and quantified using a hemocytometer (NanoEnTek, DHC-N01). Cell viability was quantified using propidium iodide (PI; 50 µg/ml) staining.
Primary cultures of C57BL/6 mouse cortical astrocytes were derived from postnatal day 2-3 pups. […]

The next assay deals with astrocytes. The experiment in a line: NADPH/NADP+ levels in astrocytes. In kind it is cell-based, mouse. The method, then:
Primary cultures of C57BL/6 mouse cortical astrocytes were derived from postnatal day 2-3 pups. They were plated on pre-treated dishes coated with Poly-L-lysine (100 µg/ml) and cultured in DMEM/F-12 (ThermoFisher) supplemented with 15% FBS and 1% penicillin/streptomycin (P/S). After 24 hours of plating, the medium was switched to 10% FBS.
The NADP/NADP-Glo™ Assay (Promega) was employed to assess the NADP/NADPH ratio in cultured cells, following the manufacturer's instructions (Technical Bulletin Number TM400). This bioluminescent assay can detect both total oxidized and reduced nicotinamide adenine dinucleotide phosphates (NADP+ and NADPH) and determine their ratio.
Cells were cultured in 24-well plates (Falcon®) at varying concentrations depending on the cell type and the specific experiment. After removing the media, we added 100 µl of PBS 1X per well and lysed the cells by introducing 100 µl of a base solution with 1% DTAB (1:1 ratio). To adapt the volumes for a 96-well plate, we divided the 200 µl total into two parts, allocating 50 µl for measuring NADP+ and 50 µl for NADPH in separate positions on the plate, allowing us to measure both NADP and NADPH levels. The assay was then carried out as per the standard protocol. Luminescence was measured using the CLARIOstar Plus plate reader from BMG LABTECH.

For `CC=C(C)C(O)C(C)C=C(C)C=CCC(C)=CCc1nc(OC)c(OC)c(O)c1C` (stereo not drawn) [Piericidin, Piericidin A], the “lactate detection in the media” value with 143B cells [1] was “higher”. Besides, the “cellular fitness / cell survival” value in the assay on 143B cells [2] is “did not cause a substantial decline”. Besides, the lactate secretion entry with mouse cortical neurons (5 mM glucose, trend, did not reach statistical significance) was “increased lactated secretion”. For the same molecule, in the assay with mouse cortical neurons (limited glucose availability (2,5 mM), 100 nM, 16 h), the levels of lactate entry was “preserving”. In the assay on mouse cortical neurons (neurons cultured in 25 mM glucose, 100 nM, 16 h), the lactate result is given as “significantly upregulation”. The proliferation result in the assay on mouse primary astrocytes (PC and ME1 knockdown astrocytes vs WT controls, 100nM, 96 h) is on record as “proliferated less”. Moreover, the “morphology, proliferation, or overall viability” value in the assay with mouse primary astrocytes (mouse primary astrocytes) is listed as “no discernible impact”. The “levels of NADPH” value in the assay on astrocytes (PC and ME1 knockdown astrocytes, 100nM, 96 h) was “reduced”. For the same molecule, the NADPH levels entry in the assay on astrocytes (astrocytes, 100 nM, 24 h) is recorded as “did not cause any alteration”.
